Structures can show the parent of a compound that is named as a salt. Where two headings read alike, the source gives them in different places.

Consider nine compounds from patent US10004701B2, “Methods and compositions for treating infection” (UNIVERSITY OF ROCHESTER, priority 2012, dated 2018).

Assay in all cases: AK assay 384-well format, Prestwick library screening
In one assay the test system is K. pneumoniae. Format: cell-based, Klebsiella pneumoniae. Particulars: Klebsiella pneumoniae, 3 h, 50 μM final drug concentration.
The next assay concerns E. coli. Format: cell-based, Escherichia coli. To be noted: Escherichia coli, 3 h, 50 μM final drug concentration.
For the next assay, the system named is E. cloacae. The class given is cell-based, Enterobacter cloacae. Particulars: Enterobacter cloacae, 3 h, 50 μM final drug concentration.
Assay [1] concerns S. aureus strain USA300-0114. Format: cell-based, Staphylococcus aureus. Particulars: Staphylococcus aureus, USA300, 3 h, 50 μM final drug concentration.
For the next assay, the system named is E. faecium. The class given is cell-based, Enterococcus faecium. Particulars: Enterococcus faecium, 3 h, 50 μM final drug concentration.
The test system of another assay is P. aeruginosa. The class given is cell-based, Pseudomonas aeruginosa. Particulars: Pseudomonas aeruginosa, 3 h, 50 μM final drug concentration.
The test system of assay [2] is A. baumannii strain 98-37-09. Format: cell-based, Acinetobacter baumannii. Particulars: Acinetobacter baumannii, 983709, 3 h, 50 μM final drug concentration.
Where [3] appears, read: planktonic K. pneumoniae, positive cutoff 3-fold increase, read-out: AK-based Prestwick library screening result, K. pneumoniae (fold increase in extracellular AK activity).
Where [4] appears, read: planktonic E. coli, positive cutoff 3-fold increase, read-out: AK-based Prestwick library screening result, E. coli (fold increase in extracellular AK activity).
[5] abbreviates: planktonic E. cloacae, positive cutoff 3-fold increase, read-out: AK-based Prestwick library screening result, E. cloacae (fold increase in extracellular AK activity).
Setting [6] is: planktonic S. aureus, positive cutoff 3-fold increase, read-out: AK-based Prestwick library screening result, S. aureus (fold increase in extracellular AK activity).
[7] abbreviates: planktonic E. faecium, positive cutoff 3-fold increase, read-out: AK-based Prestwick library screening result, E. faecium (fold increase in extracellular AK activity).
Setting [8] is: planktonic P. aeruginosa, positive cutoff 3-fold increase, read-out: AK-based Prestwick library screening result, P. aeruginosa (fold increase in extracellular AK activity).
The mark [9] stands for this setting: planktonic A. baumannii, positive cutoff 3-fold increase, read-out: AK-based Prestwick library screening result, A. baumannii (fold increase in extracellular AK activity).
[10] abbreviates: […], read-out: AK-based Prestwick Library Screening Results, K. pneumoniae (fold increase in extracellular AK activity).
The mark [11] stands for this setting: […], read-out: AK-based Prestwick Library Screening Results, E. coli (fold increase in extracellular AK activity).
[12] abbreviates: […], read-out: AK-based Prestwick Library Screening Results, E. cloacae (fold increase in extracellular AK activity).
Setting [13] is: […], read-out: AK-based Prestwick Library Screening Results, S. aureus (fold increase in extracellular AK activity).
The mark [14] stands for this setting: […], read-out: AK-based Prestwick Library Screening Results, E. faecium (fold increase in extracellular AK activity).
[15] abbreviates: […], read-out: AK-based Prestwick Library Screening Results, P. aeruginosa (fold increase in extracellular AK activity).
Setting [16] is: […], read-out: AK-based Prestwick Library Screening Results, A. baumannii (fold increase in extracellular AK activity).
Setting [17] is: cutoff for positive-scoring molecules 3-fold increase, read-out: AK-based Prestwick Library Screening Results, K. pneumoniae (fold increase in extracellular AK activity).
Setting [18] is: cutoff for positive-scoring molecules 3-fold increase, read-out: AK-based Prestwick Library Screening Results, E. coli (fold increase in extracellular AK activity).
Where [19] appears, read: cutoff for positive-scoring molecules 3-fold increase, read-out: AK-based Prestwick Library Screening Results, E. cloacae (fold increase in extracellular AK activity).
Where [20] appears, read: cutoff for positive-scoring molecules 3-fold increase, read-out: AK-based Prestwick Library Screening Results, S. aureus (fold increase in extracellular AK activity).
Setting [21] is: cutoff for positive-scoring molecules 3-fold increase, read-out: AK-based Prestwick Library Screening Results, E. faecium (fold increase in extracellular AK activity).
The mark [22] stands for this setting: cutoff for positive-scoring molecules 3-fold increase, read-out: AK-based Prestwick Library Screening Results, P. aeruginosa (fold increase in extracellular AK activity).
[23] abbreviates: cutoff for positive-scoring molecules 3-fold increase, read-out: AK-based Prestwick Library Screening Results, A. baumannii (fold increase in extracellular AK activity).
The mark [24] stands for this setting: planktonic K. pneumoniae, cutoff for positive-scoring molecules 3-fold increase, read-out: AK-based Prestwick Library Screening Results, K. pneumoniae (increase in extracellular AK activity).
The mark [25] stands for this setting: planktonic E. coli, cutoff for positive-scoring molecules 3-fold increase, read-out: AK-based Prestwick Library Screening Results, E. coli (increase in extracellular AK activity).
[26] abbreviates: planktonic E. cloacae, cutoff for positive-scoring molecules 3-fold increase, read-out: AK-based Prestwick Library Screening Results, E. cloacae (increase in extracellular AK activity).
Setting [27] is: planktonic S. aureus, cutoff for positive-scoring molecules 3-fold increase, read-out: AK-based Prestwick Library Screening Results, S. aureus (increase in extracellular AK activity).
The mark [28] stands for this setting: planktonic E. faecium, cutoff for positive-scoring molecules 3-fold increase, read-out: AK-based Prestwick Library Screening Results, E. faecium (increase in extracellular AK activity).
The mark [29] stands for this setting: planktonic P. aeruginosa, cutoff for positive-scoring molecules 3-fold increase, read-out: AK-based Prestwick Library Screening Results, P. aeruginosa (increase in extracellular AK activity).
Where [30] appears, read: planktonic A. baumannii, cutoff for positive-scoring molecules 3-fold increase, read-out: AK-based Prestwick Library Screening Results, A. baumannii (increase in extracellular AK activity).

`CCCOc1cc(N)ccc1C(=O)OCCN(CC)CC` [Propoxycaine hydrochloride]: the fold induction at 50 µM was found to be 0.6 with K. pneumoniae (setting [3]); 0.6 with E. coli (setting [4]); 0.8 with E. cloacae (setting [5]); 0.7 in assay [1] (setting [6]); 1 in the assay on E. faecium (setting [7]); 0.7 with P. aeruginosa (setting [8]). Further, the fold induction at 50 µM in assay [2] (setting [9]) is 0.8.

For the compound `O=c1ccc2cc(O)c(O)cc2o1` [Esculetin], the fold induction at 50 µM is 1.2 with K. pneumoniae (setting [10]); 1.4 in the assay with E. coli (setting [11]); 1.4 in the assay on E. cloacae (setting [12]); 1.1 in assay [1] (setting [13]); 1 in the assay with E. faecium (setting [14]); 0.9 in the assay with P. aeruginosa (setting [15]). The fold induction at 50 µM in assay [2] (setting [16]) was found to be 1.1.

As for `CC(=O)OCC(=O)[C@@]12OC(C)(C)O[C@@H]1C[C@H]1[C@@H]3C[C@H](F)C4=CC(=O)C=C[C@]4(C)[C@@]3(F)[C@@H](O)C[C@@]12C` [Fluocinonide], the fold induction at 50 µM is 0.9 with K. pneumoniae (setting [17]); 1 in the assay on E. coli (setting [18]); 1.7 with E. cloacae (setting [19]); 1.1 in assay [1] (setting [20]); 1 in the assay on E. faecium (setting [21]); 1.2 in the assay on P. aeruginosa (setting [22]). Moreover, in assay [2] (setting [23]), the fold induction at 50 µM came out at 0.9.

Consider `C[C@H](O)C(=O)Nc1c(I)c(C(=O)NC(CO)CO)c(I)c(C(=O)NC(CO)CO)c1I` [Iopamidol], for which the fold induction at 50 µM in the assay on K. pneumoniae (setting [17]) worked out at 1.2; in the assay with E. coli (setting [18]) it was 1.2; in the assay with E. cloacae (setting [19]), 1.4; in assay [1] (setting [20]), 1.3; in the assay with E. faecium (setting [21]), 1; with P. aeruginosa (setting [22]) it was 1.2. The fold induction at 50 µM in assay [2] (setting [23]) was 1.2.

For `Nc1nc(O)c2ncn(COC(CO)CO)c2n1` [Ganciclovir], the fold induction at 50 µM with K. pneumoniae (planktonic, cutoff for positive-scoring molecules 3-fold increase, read-out: AK-based Prestwick Library Screening Results, K. pneumoniae (fold increase in extracellular AK activity)) came to 0.7; with E. coli (planktonic, cutoff for positive-scoring molecules 3-fold increase, read-out: AK-based Prestwick Library Screening Results, E. coli (fold increase in extracellular AK activity)) it was 0.9; in the assay with E. cloacae (planktonic, cutoff for positive-scoring molecules 3-fold increase, read-out: AK-based Prestwick Library Screening Results, E. cloacae (fold increase in extracellular AK activity)) it was 1.4; in assay [1] (planktonic, cutoff for positive-scoring molecules 3-fold increase, read-out: AK-based Prestwick Library Screening Results, S. aureus (fold increase in extracellular AK activity)) it was 0.9; with E. faecium (planktonic, cutoff for positive-scoring molecules 3-fold increase, read-out: AK-based Prestwick Library Screening Results, E. faecium (fold increase in extracellular AK activity)), 0.9; with P. aeruginosa (planktonic, cutoff for positive-scoring molecules 3-fold increase, read-out: AK-based Prestwick Library Screening Results, P. aeruginosa (fold increase in extracellular AK activity)), 0.9. The fold induction at 50 µM in assay [2] (planktonic, cutoff for positive-scoring molecules 3-fold increase, read-out: AK-based Prestwick Library Screening Results, A. baumannii (fold increase in extracellular AK activity)) was 0.8.

Take `COC(=O)[C@H]1[C@H]2C[C@H]3c4[nH]c5ccccc5c4CCN3C[C@H]2CC[C@@H]1O` [Rauwolscine hydrochloride]: the fold induction at 50 µM in the assay on K. pneumoniae (setting [24]) came out at 0.6; with E. coli (setting [25]), 0.7; with E. cloacae (setting [26]), 0.8; in assay [1] (setting [27]) it was 0.7; in the assay with E. faecium (setting [28]), 1; in the assay with P. aeruginosa (setting [29]), 0.6. The fold induction at 50 µM in assay [2] (setting [30]) turned out to be 0.8.

Regarding `O=c1c(O)c(-c2ccc(O)cc2)oc2cc(O)cc(O)c12` [Kaempferol], the fold induction at 50 µM amounted to 0.6 in the assay on K. pneumoniae (setting [3]); 0.5 in the assay with E. coli (setting [4]); 1.6 in the assay with E. cloacae (setting [5]); 0.2 in assay [1] (setting [6]); 1 with E. faecium (setting [7]); 0.6 in the assay with P. aeruginosa (setting [8]). Moreover, the fold induction at 50 µM in assay [2] (setting [9]) came to 0.5.

With `COc1cc([C@@H]2c3cc4c(cc3[C@H](O)[C@H]3COC(=O)[C@H]23)OCO4)cc(OC)c1OC` [Podophyllotoxin], the fold induction at 50 µM in the assay on K. pneumoniae (setting [10]) turned out to be 1.2; with E. coli (setting [11]), 1.2; in the assay with E. cloacae (setting [12]) it was 1.3; in assay [1] (setting [13]), 1; in the assay on E. faecium (setting [14]) it was 0.9; in the assay on P. aeruginosa (setting [15]), 1.1. In assay [2] (setting [16]), the fold induction at 50 µM was determined as 1.2.

Consider `CCN(CC)CCNC(=O)c1ccc(N)cc1` [Procainamide hydrochloride], for which the fold induction at 50 µM in the assay on K. pneumoniae (setting [24]) amounted to 0.6; with E. coli (setting [25]), 0.6; with E. cloacae (setting [26]), 0.9; in assay [1] (setting [27]) it was 0.6; with E. faecium (setting [28]), 1; in the assay on P. aeruginosa (setting [29]) it was 0.6. Moreover, in assay [2] (setting [30]), the fold induction at 50 µM was 0.7.
